Laboratory results as given in patent US11912693B2, “Compounds for modulating S1P1 activity and methods of using the same” (TREVENA, INC., priority 2017, dated 2024).

How the values were obtained:
[1] = target: T1, human sphingosine-1-phosphate receptor 1 (S1P1) (Homo sapiens (Human), UniProt P21453); experiment: β-Arrestin2 recruitment assay (PathHunter), S1P1 CHO-K1 cells; type: cell-based; conditions: for hS1P1 B-arrestin2 pEC50: β-arrestin2 recruitment, S1P1 CHO-K1 cells; for Emax: CHO-K1, read-out: hS1P1 B-arrestin2 SPAN
How it was run: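 Enzyme-fragment complementation read-out: agonist-driven β-arrestin2 binding to ProLink-tagged human S1P1 in stable CHO-K1 cells restores β-galactosidase, measured 1 h at room temperature after a 60 min 37° C. compound incubation. Potency as pEC50, efficacy relative to fingolimod (SPAN).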
Target sequence in this assay (P21453 whole entry, looked up, the tested form may be a part): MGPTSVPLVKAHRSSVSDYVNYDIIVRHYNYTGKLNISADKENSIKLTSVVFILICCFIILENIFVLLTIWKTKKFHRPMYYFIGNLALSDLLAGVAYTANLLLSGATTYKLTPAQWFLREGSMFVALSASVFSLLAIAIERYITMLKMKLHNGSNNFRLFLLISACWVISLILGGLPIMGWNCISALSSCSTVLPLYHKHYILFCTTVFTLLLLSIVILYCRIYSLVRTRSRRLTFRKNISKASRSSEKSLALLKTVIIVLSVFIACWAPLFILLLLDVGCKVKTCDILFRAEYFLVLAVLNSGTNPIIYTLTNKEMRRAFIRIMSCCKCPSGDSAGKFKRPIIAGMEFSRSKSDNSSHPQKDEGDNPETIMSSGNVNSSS
Target sequence in this assay (P32121 whole entry partner, looked up, the tested form may be a part): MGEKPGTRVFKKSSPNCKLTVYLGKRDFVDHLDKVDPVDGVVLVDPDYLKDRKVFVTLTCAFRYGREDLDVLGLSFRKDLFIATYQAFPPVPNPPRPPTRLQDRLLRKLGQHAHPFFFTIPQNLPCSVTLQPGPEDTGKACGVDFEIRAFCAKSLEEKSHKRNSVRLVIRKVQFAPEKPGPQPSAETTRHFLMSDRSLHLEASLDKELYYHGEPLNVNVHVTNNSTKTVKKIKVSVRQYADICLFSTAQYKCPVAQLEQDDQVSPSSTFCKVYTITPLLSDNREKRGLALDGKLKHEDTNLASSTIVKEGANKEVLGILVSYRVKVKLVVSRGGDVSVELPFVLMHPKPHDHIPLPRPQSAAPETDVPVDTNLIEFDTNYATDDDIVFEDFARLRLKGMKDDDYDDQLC

[2] = target: T1, human sphingosine-1-phosphate receptor 1 (S1P1); experiment: Inhibition of cAMP production (HTRF cAMP HiRange), S1P1 CHO-K1 cells; type: cell-based; conditions: for hS1P1 cAMP pEC50: inhibition of cAMP production, S1P1 CHO-K1 cells; for Emax: CHO-K1, read-out: hS1P1 cAMP SPAN
How it was run: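 CHO-K1 cells stably co-expressing human S1P1 (C-terminal Prolink tag) and EA-β-arrestin2 were grown in AssayComplete Media 6 at 37° C. and 5% CO2, plated, and incubated overnight. Agonist-driven inhibition of intracellular cAMP was read by TR-FRET with the HTRF cAMP HiRange kit on a PheraStar reader. Potency is pEC50, and efficacy (SPAN) is normalized to fingolimod.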
Target sequence in this assay (P21453 whole entry, looked up, the tested form may be a part): as the sequence (P21453 whole entry, looked up, the tested form may be a part) above

[3] = efficacy (SPAN) normalized to fingolimod

Structure (SMILES): CCC1(CC)CC(=O)c2cc(-c3nc(-c4ccc(C(=O)N(C)C)cc4)no3)ccc2O1 [Compound 151, 4-(5-(2,2-diethyl-4-oxochroman-6-yl)-1,2,4-oxadiazol-3-yl)-N,N-dimethylbenzamide]
- hS1P1 B-arrestin2 SPAN [1, 3]: >75
- hS1P1 B-arrestin2 pEC50 [1]: <5
- hS1P1 cAMP SPAN [2, 3]: >75
- hS1P1 cAMP pEC50 [2]: <6.5

Structure (SMILES): CCC1(CC)CC(=O)c2cc(-c3nc(-c4ccc(NC)cc4)no3)ccc2O1 [Compound 153, 2,2-diethyl-6-(3-(4-(methylamino)phenyl)-1,2,4-oxadiazol-5-yl)chroman-4-one]
- Emax [1, 3]: < 75%
- hS1P1 B-arrestin2 pEC50 [1]: >5
- Emax [2, 3]: > 75%
- hS1P1 cAMP pEC50 [2]: <6.5

Structure (SMILES): Cc1ccccc1C(C)c1noc(-c2ccc3c(c2)nnn3CC(C)C)n1 (centres unmarked) [Compound 154, 5-{3-[1-(2-methylphenyl)ethyl]-1,2,4-oxadiazol-5-yl}-1-(2-methylpropyl)-1H-1,2,3-benzotriazole]
- hS1P1 B-arrestin2 pEC50 [1]: <5
- hS1P1 cAMP pEC50 [2]: <6.5

Structure (SMILES): COc1cc(-c2noc(-c3ccc4c(c3)nnn4C3CC3)n2)ccn1 [Compound 155, 1-cyclopropyl-5-[3-(2-methoxypyridin-4-yl)-1,2,4-oxadiazol-5-yl]-1H-1,2,3-benzotriazole]
- hS1P1 B-arrestin2 pEC50 [1]: <5
- hS1P1 cAMP pEC50 [2]: <6.5

Structure (SMILES): Cc1cc(-c2nc(-c3ccc4c(c3)nnn4C(C)C)no2)cc(C)n1 [Compound 156, 5-(2,6-dimethylpyridin-4-yl)-3-(1-isopropyl-1H-benzo[d][1,2,3]triazol-5-yl)-1,2,4-oxadiazole]
- Emax [1, 3]: > 75%
- hS1P1 B-arrestin2 pEC50 [1]: >5
- Emax [2, 3]: > 75%
- hS1P1 cAMP pEC50 [2]: >6.5

Structure (SMILES): Cc1cnc(-c2noc(-c3ccc4c(c3)nnn4C(C)C)n2)cn1 [Compound 157, 5-[3-(5-methylpyrazin-2-yl)-1,2,4-oxadiazol-5-yl]-1-(propan-2-yl)-1H-1,2,3-benzotriazole]
- hS1P1 B-arrestin2 pEC50 [1]: <5
- hS1P1 cAMP pEC50 [2]: <6.5

Structure (SMILES): Cc1cc(C)cc(-c2noc(-c3ccc4c(c3)nnn4C3CCCCC3)n2)c1 [Compound 158, 1-cyclohexyl-5-[3-(3,5-dimethylphenyl)-1,2,4-oxadiazol-5-yl]-1H-1,2,3-benzotriazole]
- Emax [1, 3]: < 75%
- hS1P1 B-arrestin2 pEC50 [1]: <5
- Emax [2, 3]: < 75%
- hS1P1 cAMP pEC50 [2]: <6.5

Structure (SMILES): Cc1cncc(-c2nc(-c3ccc4c(c3)nnn4C(C)C)no2)c1 [Compound 159, 3-(1-isopropyl-1H-benzo[d][1,2,3]triazol-5-yl)-5-(5-methylpyridin-3-yl)-1,2,4-oxadiazole]
- hS1P1 B-arrestin2 pEC50 [1]: <5
- hS1P1 cAMP pEC50 [2]: <6.5

Structure (SMILES): CCCn1nnc2cc(-c3nc(-c4ccccc4)no3)ccc21 [Compound 160, 5-(3-phenyl-1,2,4-oxadiazol-5-yl)-1-propyl-1H-1,2,3-benzotriazole]
- hS1P1 B-arrestin2 pEC50 [1]: <5
- hS1P1 cAMP pEC50 [2]: <6.5

Structure (SMILES): COC(=O)CCn1nnc2cc(-c3noc(-c4ccccc4Br)n3)ccc21 [Compound 161, methyl 3-(5-(5-(2-bromophenyl)-1,2,4-oxadiazol-3-yl)-1H-benzo[d][1,2,3]triazol-1-yl)propanoate]
- hS1P1 B-arrestin2 pEC50 [1]: <5
- hS1P1 cAMP pEC50 [2]: <6.5

Structure (SMILES): Cc1ccccc1-c1nc(-c2ccc3c(c2)nnn3C2CCCC2)no1 [Compound 162, 3-(1-cyclopentyl-1H-benzo[d][1,2,3]triazol-5-yl)-5-(o-tolyl)-1,2,4-oxadiazole]
- hS1P1 B-arrestin2 pEC50 [1]: >5
- hS1P1 cAMP pEC50 [2]: <6.5

Structure (SMILES): CC(C)n1nnc2cc(-c3nc(-c4ccccc4Cl)co3)ccc21 [Compound 163]
- Emax [1, 3]: > 75%
- Emax [2, 3]: > 75%

Structure (SMILES): Cc1ccc(-c2noc(-c3ccc4c(c3)nnn4C3CCCC3)n2)cc1 [Compound 164, 1-cyclopentyl-5-[3-(4-methylphenyl)-1,2,4-oxadiazol-5-yl]-1H-1,2,3-benzotriazole]
- hS1P1 B-arrestin2 pEC50 [1]: <5
- hS1P1 cAMP pEC50 [2]: <6.5

Structure (SMILES): CC(C)n1nnc2cc(-c3nc(-c4cccnc4)no3)ccc21 [Compound 165, 1-(propan-2-yl)-5-[3-(pyridin-3-yl)-1,2,4-oxadiazol-5-yl]-1H-1,2,3-benzotriazole]
- hS1P1 B-arrestin2 pEC50 [1]: <5
- hS1P1 cAMP pEC50 [2]: <6.5

Structure (SMILES): Cc1ccc(-c2nc(-c3ccc4c(c3)nnn4C(C)C)no2)c(C)c1 [Compound 166, 5-(2,4-dimethylphenyl)-3-(1-isopropyl-1H-benzo[d][1,2,3]triazol-5-yl)-1,2,4-oxadiazole]
- hS1P1 B-arrestin2 pEC50 [1]: <5
- hS1P1 cAMP pEC50 [2]: <6.5

Structure (SMILES): CC(C)c1cc(-c2nc(-c3ccc4c(c3)nnn4C(C)C)no2)ccn1 [Compound 167, 3-(1-isopropyl-1H-benzo[d][1,2,3]triazol-5-yl)-5-(2-isopropylpyridin-4-yl)-1,2,4-oxadiazole]
- hS1P1 B-arrestin2 pEC50 [1]: <5
- hS1P1 cAMP pEC50 [2]: <6.5

Structure (SMILES): CC(C)n1nnc2cc(-c3nc(-c4ccc5ccccc5n4)no3)ccc21 [Compound 168, 2-{5-[1-(propan-2-yl)-1H-1,2,3-benzotriazol-5-yl]-1,2,4-oxadiazol-3-yl}quinoline]
- Emax [1, 3]: < 75%
- hS1P1 B-arrestin2 pEC50 [1]: <5
- Emax [2, 3]: < 75%
- hS1P1 cAMP pEC50 [2]: <6.5

Structure (SMILES): CC(C)n1nnc2cc(-c3nc(-c4ccc(Cl)s4)no3)ccc21 [Compound 170, 5-[3-(5-chlorothiophen-2-yl)-1,2,4-oxadiazol-5-yl]-1-(propan-2-yl)-1H-1,2,3-benzotriazole]
- Emax [1, 3]: < 75%
- hS1P1 B-arrestin2 pEC50 [1]: <5
- Emax [2, 3]: < 75%
- hS1P1 cAMP pEC50 [2]: <6.5

Structure (SMILES): Cc1ccccc1-c1noc(-c2ccc3c(c2)nnn3C2CC2)n1 [Compound 171, 1-cyclopropyl-5-[3-(2-methylphenyl)-1,2,4-oxadiazol-5-yl]-1H-1,2,3-benzotriazole]
- hS1P1 B-arrestin2 pEC50 [1]: >5
- hS1P1 cAMP pEC50 [2]: >6.5

Structure (SMILES): Cc1ccccc1C(C)c1noc(-c2ccc3c(c2)nnn3C(C)C)n1 (centres unmarked) [Compound 172, 5-{3-[1-(2-methylphenyl)ethyl]-1,2,4-oxadiazol-5-yl}-1-(propan-2-yl)-1H-1,2,3-benzotriazole]
- Emax [1, 3]: < 75%
- hS1P1 B-arrestin2 pEC50 [1]: <5
- Emax [2, 3]: < 75%
- hS1P1 cAMP pEC50 [2]: <6.5

Structure (SMILES): COc1ccccc1-c1noc(-c2ccc3c(c2)nnn3C2CC2)n1 [Compound 173, 1-cyclopropyl-5-[3-(2-methoxyphenyl)-1,2,4-oxadiazol-5-yl]-1H-1,2,3-benzotriazole]
- Emax [1, 3]: > 75%
- hS1P1 B-arrestin2 pEC50 [1]: >5
- Emax [2, 3]: > 75%
- hS1P1 cAMP pEC50 [2]: >6.5

Structure (SMILES): c1cc(-c2noc(-c3ccc4c(c3)nnn4C3CCCC3)n2)ccn1 [Compound 174, 1-cyclopentyl-5-[3-(pyridin-4-yl)-1,2,4-oxadiazol-5-yl]-1H-1,2,3-benzotriazole]
- Emax [1, 3]: > 75%
- hS1P1 B-arrestin2 pEC50 [1]: <5
- Emax [2, 3]: > 75%
- hS1P1 cAMP pEC50 [2]: >6.5

Structure (SMILES): Cc1ccccc1-c1noc(-c2ccc3c(c2)nnn3C2CCCC2)n1 [Compound 175, 1-cyclopentyl-5-[3-(2-methylphenyl)-1,2,4-oxadiazol-5-yl]-1H-1,2,3-benzotriazole]
- Emax [1, 3]: > 75%
- hS1P1 B-arrestin2 pEC50 [1]: >5
- Emax [2, 3]: > 75%
- hS1P1 cAMP pEC50 [2]: >6.5

Structure (SMILES): O=C1CC2(CCCC2)Oc2ccc(-c3nc(-c4ccncc4)no3)cc21 [Compound 176, 6-[3-(pyridin-4-yl)-1,2,4-oxadiazol-5-yl]-3,4-dihydrospiro[1-benzopyran-2,1′-cyclopentane]-4-one]
- Emax [1, 3]: < 75%
- hS1P1 B-arrestin2 pEC50 [1]: <5
- Emax [2, 3]: > 75%
- hS1P1 cAMP pEC50 [2]: <6.5

Structure (SMILES): CCC1(CC)CC(=O)c2cc(-c3nnc(-c4ccccc4OC)s3)ccc2O1 [Compound 178, 2,2-diethyl-6-(5-(2-methoxyphenyl)-1,3,4-thiadiazol-2-yl)chroman-4-one]
- Emax [1, 3]: < 75%
- hS1P1 B-arrestin2 pEC50 [1]: >5
- Emax [2, 3]: > 75%
- hS1P1 cAMP pEC50 [2]: <6.5

Structure (SMILES): CC(C)n1nnc2cc(-c3nc(-c4ccccc4O)no3)ccc21 [Compound 180, 2-(5-(1-isopropyl-1H-benzo[d][1,2,3]triazol-5-yl)-1,2,4-oxadiazol-3-yl)phenol]
- hS1P1 B-arrestin2 pEC50 [1]: <5
- hS1P1 cAMP pEC50 [2]: <6.5

Structure (SMILES): CC(C)n1nnc2cc(C(=O)Nc3noc4ccccc34)ccc21 [Compound 181, N-(benzo[d]isoxazol-3-yl)-1-isopropyl-1H-benzo[d][1,2,3]triazole-5-carboxamide]
- Emax [1, 3]: > 75%
- hS1P1 B-arrestin2 pEC50 [1]: <5
- Emax [2, 3]: > 75%
- hS1P1 cAMP pEC50 [2]: <6.5
